# Test results: US20260158017A1, “KIF18A INHIBITOR” (WIGEN BIOMEDICINE TECHNOLOGY (SHANGHAI) CO., LTD., priority 2021, published 2026)
# Key:
# [1] = test system: Histone H3 Ser10 sites in HT29 cells; assay: Phosphorylation assay of histone H3 Ser10 sites in HT29 cells (immunofluorescence assay); format: cell-based; settings: Homo sapiens, HT-29, 6 h after addition, FITC/DAPI ratio
# Experimental: Biological Example 5. Phosphorylation Assay of Histone H3 Ser10 Sites in HT29 Cells (Immunofluorescence Assay)
# HT29 cells were seeded in a 96-well plate (Fisher 160376) at 8000 cells/well. The next day, the serially diluted compounds were added. 6 h after the addition of the compounds, the cells were washed once with 1×PBS, immobilized with 4% PFA for 15 min, further washed three times with 1×PBS, and permeabilized with 0.02% Triton-X100 for 10 min. A blocking buffer was then added for blocking for 15-30 min, and 1:3000-diluted primary antibodies (Phospho-Histone H3 (Ser10) (D7N8E) XP® Rabbit mAb #53348) were added. The plate was placed at 4° C. overnight. The next day, the cells were washed three times with 1×PBS, and 1:1000-diluted secondary antibodies (Fluorescein (FITC)-conjugated Affinipure Goat Anti-Rabbit IgG (H+L)) were added. The cells were incubated in the dark for 1-2 h and washed three times with 1×PBS. The nuclei were stained with DAPI, and after the staining was completed, photographs were taken using an MD ImageXpress Pico personal high-content imaging analysis system. The ratio of phosphorylation (FITC/DAPI) at H3 Ser10 sites in HT29 cells was quantified. To evaluate the effects of the compounds on the mitosis phase of HT29 cells, the EC50 values of the compounds were calculated.
# [2] = test system: HT29 subcutaneous xenograft tumor; assay: In vivo pharmacodynamic study, mouse HT29 subcutaneous xenograft tumor model; set-up: species or system BALB/c nude mice; settings: for Tumor volume on day 1 of treatment / Tumor volume on day 28 of treatment / TGI (tumor growth inhibition): 80 mg/kg intragastric once daily; for Tumor volume on day 1 of treatment: baseline day 1; for TGI (tumor growth inhibition): day 28 vs day 1
# Experimental: Biological Example 4. In Vivo Pharmacodynamic Study-Mouse HT29 Subcutaneous Xenograft Tumor Model
# BALB/c nude mice were inoculated subcutaneously with 5×10^6 HT29 cells on the left dorsal side. After the tumors grew to 100-150 mm^3, the mice were randomly divided into the following groups for intragastric administration once daily: group 1: vehicle control group; group 2: compound 661 (80 mg/kg); group 3: compound 669 (80 mg/kg); group 4: compound 677 (80 mg/kg); group 5: compound 714 (80 mg/kg); group 6: compound 727 (80 mg/kg); group 7: compound 740 (80 mg/kg); and group 8: AMG650 (80 mg/kg). The tumor volume was measured twice weekly and at the end of treatment.
# HCT116 cells = assay: In vitro anti-proliferative activity against HCT116 cells (intracellular ATP content, 72 h); format: cell-based; settings: for IC50: Homo sapiens, HCT-116, 72 h after dosing
# Experimental: Biological Example 3. In Vitro Anti-Proliferative Activity of the Compounds of the Present Invention Against HCT116 Cells
# (§1) HCT116 cells were seeded on a 384-well plate at 3000 cells/well. After overnight adherence culture, DMSO or the compounds serially 1:5-diluted from 5 μM were added. The viability of the cells was assessed 72 h after dosing by measuring the intracellular ATP content. The inhibition percentages of viable cells by the compounds were calculated by comparing with the DMSO group, and the IC 50 values were also calculated.
# HT-29 cells = assay: In vitro anti-proliferative activity against HT-29 cells (intracellular ATP content, 72 h); format: cell-based; settings: Homo sapiens, 72 h after dosing
# Experimental: Biological Example 2. In Vitro Anti-Proliferative Activity of the Compounds of the Present Invention Against HT-29 Cells
# as §1, with “HT-29” for “HCT116”, “IC50” for “IC 50”
Structure (SMILES),EC50 [1] [nM],Tumor volume on day 1 of treatment [2] [mm^3],Tumor volume on day 28 of treatment [2] [mm^3],TGI (tumor growth inhibition) [2] [%],"Inhibitory effect on HT29 mouse subcutaneous xenograft tumor (in words) ([2]; 80 mg/kg, comparison with AMG650)",Anti-proliferative activity against HCT116 cells (in words) (HCT116 cells),IC50 (HCT116 cells) [nM],IC50 (HT-29 cells) [nM]
COc1ccc(NC(=O)c2ccc(NS(=O)(=O)CCOC(=O)[C@@H](N)C(C)C)cc2N2CCC3(CC2)CC3)nc1N1CCC(F)(F)CC1 [Compound 714],39.2,121,424,80,stronger inhibitory effects,,,
"Cc1cc(NC(=O)c2ccc(NS(=O)(=O)CCO)cc2N2CCC3(CC2)CC3)nc(N2CCC(F)(F)CC2)n1 [AMG650, reference compound]",52.3,121,649,64,,neither the compounds of the present invention nor AMG650 have anti-proliferative activity,> 10000,109
COc1ccc(NC(=O)c2ccc(NS(=O)(=O)CCOC(C)=O)cc2N2CCC3(CC2)CC3)nc1N1CCC(F)(F)CC1 [Compound 661],23.7,121,704,61,,,> 10000,25.8
